Assay results as given in patent publication US12227509B2, “Dihydropyrazolopyrazinone derivative having MGAT2 inhibitory activity” (Shionogi & Co., Ltd., priority 2019, dated 2025).

Assays:
[1] = Metabolism stability test (human liver microsomes); format: in vitro ADME; details: compound concentration 0.5 μmol/L, 37° C., 30 minutes, NADPH
CYP3A4 = CYP3A4 (Homo sapiens (Human), UniProt P08684); test: CYP3A4 (MDZ) MBI test; format: in vitro ADME; details: pooled human liver microsomes; midazolam 1-hydroxylation; preincubation 0 vs 30 min
Protocol: CYP3A4 (MDZ) MBI test is a test of investigating mechanism based inhibition (MBI) potential on CYP3A4 by the enhancement of inhibitory degree of a metabolic reaction caused by the compound of the present invention. CYP3A4 inhibition was evaluated using pooled human liver microsomes by 1-hydroxylation reaction of midazolam (MDZ) as a marker reaction.
The reaction conditions are as follows: substrate, 10 μmol/L MDZ; pre-reaction time, 0 or 30 minutes; substrate reaction time, 2 minutes; reaction temperature, 37° C.; protein content of pooled human liver microsomes, at pre-reaction time 0.5 mg/mL, at reaction time 0.05 mg/mL (at 10-fold dilution); concentrations of the compound of the present invention, at pre-reaction time 1, 5, 10, 20 μmol/L (four points).
Pooled human liver microsomes and a solution of the compound of the present invention in K-Pi buffer (pH 7.4) as a pre-reaction solution were added to a 96-well plate at the composition of the pre-reaction. A part of pre-reaction solution was transferred to another 96-well plate, and 1/10 diluted by K-Pi buffer containing a substrate. NADPH as a co-factor was added to initiate a reaction as a marker reaction (without pre-reaction). After a predetermined time of a reaction, methanol/acetonitrile=1/1 (V/V) solution was added to stop the reaction. In addition, NADPH was added to a remaining pre-reaction solution to initiate a pre-reaction (with pre-reaction). After a predetermined time of a pre-reaction, a part was transferred to another plate, and 1/10 diluted by K-Pi buffer containing a substrate to initiate a reaction as a marker reaction. After a predetermined time of a reaction, methanol/acetonitrile=1/1 (V/V) solution was added in order to stop the reaction. The plate on which each index reaction had been performed was centrifuged at 3000 rpm for 15 minutes, and thereafter 1-hydroxylated midazolam in the supernatant was quantified by LC/MS/MS.
The sample adding DMSO as a solvent to a reaction system instead of a solution dissolving the compound of the present invention was adopted as a control (100%). Remaining activity (%) was calculated at each concentration of the compound of the present invention compared to a control, and IC value was calculated by reverse-presumption by a logistic model using a concentration and an inhibition rate. IC at Preincubation 0 min/IC at Preincubation 30 min was defined as a value of Shifted IC, and a case that Shifted IC was 1.5 or more was regarded as Positive, and a case that Shifted IC was 1.0 or less was regarded as Negative.

CYP2D6 = CYP2D6 (Homo sapiens (Human), UniProt P10635); test: CYP inhibition test, CYP2D6; format: in vitro ADME; details: pooled human liver microsomes; dextromethorphan O-demethylation; given as 'five kinds'
Source text: Using commercially available pooled human hepatic microsome, and employing, as markers, 7-ethoxyresorufin O-deethylation (CYP1A2), tolbutamide methyl-hydroxylation (CYP2C9), mephenytoin 4'-hydroxylation (CYP2C19), dextromethorphan 0-demethylation (CYP2D6), and terfenadine hydroxylation (CYP3A4) as typical substrate metabolism reactions of human main five CYP enzyme forms (CYP1A2, 2C9, 2C19, 2D6, 3A4), an inhibitory degree of each metabolite production amount by the compound of the present invention was assessed. The reaction conditions are as follows: substrate, 0.5 μmol/L ethoxyresorufin (CYP1A2), 100 μmol/L tolbutamide (CYP2C9), 50 μmol/L S-mephenitoin (CYP2C19), 5 μmol/L dextromethorphan (CYP2D6), 1 μmol/L terfenedine (CYP3A4); reaction time, 15 minutes; reaction temperature, 37° C.; enzyme, pooled human liver microsomes 0.2 mg protein/mL; concentrations of the compound of the present invention, 1, 5, 10, 20 μmol/L (four points). As a reaction solution, each five kinds of substrates, human liver microsomes, or compound of the present invention in 50 mmol/L Hepes buffer were added to a 96-well plate at the composition as described above, and NADPH, as a cofactor was added to initiate metabolism reactions. After the incubation at 37° C. for 15 minutes, a methanol/acetonitrile=1/[…]) solution was added to stop the reaction. After the centrifugation at 3000 rpm for 15 minutes, resorufin (CYP1A2 metabolite) in the supernatant was quantified by a fluorescent multilabel counter or LC/MS/MS, and tolbutamide hydroxide (CYP2C9 metabolite), mephenytoin 4' hydroxide (CYP2C19 metabolite), dextrorphan (CYP2D6 metabolite), and terfenadine alcohol (CYP3A4 metabolite) were quantified by LC/MS/MS. Addition of only DMSO being a solvent dissolving a drug to a reaction system was adopted as a control (100%). Remaining activity (%) was calculated. IC50 was calculated by reverse presumption by a logistic model using the concentration and an inhibition rate.

hERG (IKr) = hERG (IKr) (Homo sapiens (Human), UniProt Q12809); test: hERG test; format: cell-based; details: CHO cells expressing hERG channel, pH 7.4, 10 μmol/L of test compound, read-out: % inhibition of hERG tail peak current (IKr)
Chain of hERG (IKr) (Q12809 whole entry): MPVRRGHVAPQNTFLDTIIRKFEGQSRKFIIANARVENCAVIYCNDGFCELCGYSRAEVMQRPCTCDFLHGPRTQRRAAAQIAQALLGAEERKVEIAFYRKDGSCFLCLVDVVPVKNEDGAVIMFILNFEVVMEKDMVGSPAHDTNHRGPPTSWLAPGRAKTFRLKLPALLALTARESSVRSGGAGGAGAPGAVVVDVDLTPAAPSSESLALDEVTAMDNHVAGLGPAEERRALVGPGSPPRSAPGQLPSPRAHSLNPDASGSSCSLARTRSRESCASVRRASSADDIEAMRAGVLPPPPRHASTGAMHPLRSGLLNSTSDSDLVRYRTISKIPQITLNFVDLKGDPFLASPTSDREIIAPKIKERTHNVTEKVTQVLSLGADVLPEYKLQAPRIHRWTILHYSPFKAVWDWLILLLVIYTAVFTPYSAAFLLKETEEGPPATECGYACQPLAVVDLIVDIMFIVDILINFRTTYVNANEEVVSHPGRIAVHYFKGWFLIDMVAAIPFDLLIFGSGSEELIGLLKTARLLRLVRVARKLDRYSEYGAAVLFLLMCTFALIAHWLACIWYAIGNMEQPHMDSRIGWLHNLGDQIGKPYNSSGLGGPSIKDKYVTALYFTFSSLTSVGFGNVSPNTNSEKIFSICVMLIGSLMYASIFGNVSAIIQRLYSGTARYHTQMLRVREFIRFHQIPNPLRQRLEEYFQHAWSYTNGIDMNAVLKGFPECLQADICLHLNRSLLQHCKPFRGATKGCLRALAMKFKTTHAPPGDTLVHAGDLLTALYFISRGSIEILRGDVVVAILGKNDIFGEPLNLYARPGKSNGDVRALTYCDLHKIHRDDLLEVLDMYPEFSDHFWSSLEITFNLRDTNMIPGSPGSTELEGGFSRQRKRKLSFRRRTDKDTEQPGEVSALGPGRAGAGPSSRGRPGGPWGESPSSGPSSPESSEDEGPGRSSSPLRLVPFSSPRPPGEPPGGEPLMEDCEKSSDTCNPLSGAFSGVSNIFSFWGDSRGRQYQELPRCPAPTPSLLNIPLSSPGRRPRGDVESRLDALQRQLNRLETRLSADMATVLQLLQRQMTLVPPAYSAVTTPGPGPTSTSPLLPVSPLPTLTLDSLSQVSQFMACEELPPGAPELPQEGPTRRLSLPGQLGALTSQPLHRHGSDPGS

Chain of CYP3A4 (P08684 whole entry): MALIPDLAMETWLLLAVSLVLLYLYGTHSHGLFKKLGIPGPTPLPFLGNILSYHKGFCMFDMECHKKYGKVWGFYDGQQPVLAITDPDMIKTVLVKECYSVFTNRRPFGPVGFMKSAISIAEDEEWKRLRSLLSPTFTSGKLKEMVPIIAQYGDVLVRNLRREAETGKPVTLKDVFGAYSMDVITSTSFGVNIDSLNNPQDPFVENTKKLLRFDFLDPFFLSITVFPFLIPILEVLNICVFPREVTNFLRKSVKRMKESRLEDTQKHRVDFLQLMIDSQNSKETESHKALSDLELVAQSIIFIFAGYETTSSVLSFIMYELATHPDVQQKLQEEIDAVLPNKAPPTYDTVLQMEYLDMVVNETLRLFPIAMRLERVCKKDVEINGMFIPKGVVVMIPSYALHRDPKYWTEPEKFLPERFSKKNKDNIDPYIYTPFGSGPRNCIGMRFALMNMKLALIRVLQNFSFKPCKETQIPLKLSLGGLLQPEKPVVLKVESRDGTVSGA
Chain of CYP2D6 (P10635 whole entry): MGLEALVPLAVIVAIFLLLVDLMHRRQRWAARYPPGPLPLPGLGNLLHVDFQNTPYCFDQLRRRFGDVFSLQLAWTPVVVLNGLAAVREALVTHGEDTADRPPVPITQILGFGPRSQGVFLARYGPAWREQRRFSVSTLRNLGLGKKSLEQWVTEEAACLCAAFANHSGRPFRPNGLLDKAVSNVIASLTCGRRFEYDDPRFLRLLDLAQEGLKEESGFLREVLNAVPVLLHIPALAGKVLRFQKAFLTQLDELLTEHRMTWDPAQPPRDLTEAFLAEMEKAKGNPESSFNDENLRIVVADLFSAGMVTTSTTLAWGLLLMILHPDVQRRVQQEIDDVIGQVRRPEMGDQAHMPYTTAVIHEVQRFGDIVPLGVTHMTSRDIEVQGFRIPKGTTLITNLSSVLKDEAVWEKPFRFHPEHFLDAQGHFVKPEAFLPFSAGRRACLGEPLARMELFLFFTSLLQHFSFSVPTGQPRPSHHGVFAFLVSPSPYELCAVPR

Cc1ccc(-c2nn3c(c2NC(=O)CS(C)(=O)=O)C(=O)N[C@@]2(CCc4cc(OCC(F)(F)F)ccc42)C3)nc1 [Compound I-6]
Remaining rate [1]: 92.4% | CYP3A4 (MDZ) MBI (Shifted IC judgement) (CYP3A4): Negative (a case that Shifted IC was 1.0 or less was regarded as Negative) | IC50 (CYP2D6): > 20 µM

N#Cc1ccc(-c2nn3c(c2NC(=O)CC(F)(F)F)C(=O)N[C@@]2(CCc4cc(OCC(F)(F)F)ccc42)C3)nc1 [Compound I-14]
Remaining rate [1]: 103% | CYP3A4 (MDZ) MBI (Shifted IC judgement) (CYP3A4): Negative (a case that Shifted IC was 1.0 or less was regarded as Negative) | IC50 (CYP2D6): > 20 µM | inhibition at 10 min, 10 μmol/L (hERG (IKr)): 25.5%

Cc1ccc(-c2nn3c(c2NC(=O)CS(C)(=O)=O)C(=O)N[C@@]2(CCc4cc(OCC(F)(F)F)ccc42)C3)cc1 [Compound I-20]
Remaining rate [1]: 74.5% | CYP3A4 (MDZ) MBI (Shifted IC judgement) (CYP3A4): Negative (a case that Shifted IC was 1.0 or less was regarded as Negative) | IC50 (CYP2D6): > 20 µM | inhibition at 10 min, 10 μmol/L (hERG (IKr)): 27.8%

CS(=O)(=O)CC(=O)Nc1c(CCC2CC2)nn2c1C(=O)N[C@@]1(CCc3cc(OCC(F)(F)F)ccc31)C2 [Compound I-46]
Remaining rate [1]: 78.1% | CYP3A4 (MDZ) MBI (Shifted IC judgement) (CYP3A4): Negative (a case that Shifted IC was 1.0 or less was regarded as Negative) | IC50 (CYP2D6): > 20 µM

CS(=O)(=O)CC(=O)Nc1c(CCC(F)(F)F)nn2c1C(=O)N[C@@]1(CCc3cc(OCC(F)(F)F)ccc31)C2 [Compound I-58]
Remaining rate [1]: 88.4% | CYP3A4 (MDZ) MBI (Shifted IC judgement) (CYP3A4): Negative (a case that Shifted IC was 1.0 or less was regarded as Negative) | IC50 (CYP2D6): > 20 µM
